Key:
[1] = biological target: T1, Oxysterols receptor LXR-alpha (Homo sapiens, UniProt Q13133)
[2] = biological target: T2, Oxysterols receptor LXR-beta (Homo sapiens, UniProt P55055)
HepG2 [3] = test: cells; details: Homo sapiens, HepG2, 3 h
[4] = biological target: T2, Oxysterols receptor LXR-beta; remark: listed apart in the source
[5] = biological target: T2, Oxysterols receptor LXR-beta; test: Displacement of [3H]T0901317 from human LXRbeta ligand binding domain
THP-1 = test: cells; details: Homo sapiens
HepG2 [6] = test: Agonist activity at LXR in human HepG2 cells assessed as lipid accumulation relative to T0901317
[7] = biological target: T1, Oxysterols receptor LXR-alpha; remark: listed apart in the source
[8] = biological target: T3, Oxysterols receptor LXR-alpha (Homo sapiens, UniProt Q13133); test: Displacement of [3H]T0901317 from human LXRalpha ligand binding domain
T3 sequence (Q13133 whole entry): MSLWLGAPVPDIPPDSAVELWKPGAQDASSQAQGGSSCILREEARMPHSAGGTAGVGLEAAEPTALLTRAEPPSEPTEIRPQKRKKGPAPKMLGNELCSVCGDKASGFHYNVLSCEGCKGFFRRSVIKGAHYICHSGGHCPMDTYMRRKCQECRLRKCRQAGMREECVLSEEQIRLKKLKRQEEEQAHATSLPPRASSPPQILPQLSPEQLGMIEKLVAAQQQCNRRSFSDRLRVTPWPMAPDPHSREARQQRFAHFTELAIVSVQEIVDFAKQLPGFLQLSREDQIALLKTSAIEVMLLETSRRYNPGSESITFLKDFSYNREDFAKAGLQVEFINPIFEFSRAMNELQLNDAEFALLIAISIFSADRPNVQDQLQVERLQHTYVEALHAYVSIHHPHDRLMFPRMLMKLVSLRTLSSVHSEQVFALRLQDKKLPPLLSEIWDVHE

T2 sequence (P55055 whole entry): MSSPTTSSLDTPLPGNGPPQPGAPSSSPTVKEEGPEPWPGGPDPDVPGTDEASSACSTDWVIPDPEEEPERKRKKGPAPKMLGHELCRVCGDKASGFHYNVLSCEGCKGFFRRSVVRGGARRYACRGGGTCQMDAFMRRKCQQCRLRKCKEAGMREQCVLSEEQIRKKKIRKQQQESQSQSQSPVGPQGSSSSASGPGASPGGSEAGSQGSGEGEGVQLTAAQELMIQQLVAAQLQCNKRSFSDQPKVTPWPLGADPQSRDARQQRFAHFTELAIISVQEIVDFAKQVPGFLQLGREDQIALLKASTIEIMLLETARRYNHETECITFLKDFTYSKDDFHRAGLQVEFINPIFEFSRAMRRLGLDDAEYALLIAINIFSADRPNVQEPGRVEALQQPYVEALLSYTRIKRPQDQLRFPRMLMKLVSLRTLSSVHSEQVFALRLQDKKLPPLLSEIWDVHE

| Structure (SMILES) | EC50 (THP-1) [nM] | Efficacy (HepG2 [6]) [%] | IC50 [8] [nM] | other results |
| --- | --- | --- | --- | --- |
| CS(=O)(=O)c1cc(Cl)cc(Oc2cccc(-c3c(C(N)=O)cnc4c(C(F)(F)F)cccc34)c2)c1 | 1890 | 74 | – | EC50 [1]: 5100 nM; EC50 [2]: 1700 nM; EC50 (HepG2 [3]): 3180 nM; EC50 [4]: 460 nM; IC50 [5]: 61 nM; EC50 [7]: 10900 nM |
| Cc1nc2c(C(F)(F)F)cccc2nc1-c1ccc(-c2ccc(S(C)(=O)=O)cc2)cc1 | – | – | > 1000 | – |
| CCc1nc2c(C(F)(F)F)cccc2nc1-c1ccc(-c2cccc(S(C)(=O)=O)c2)cc1 | 900 | 32 | – | EC50 (HepG2 [3]): 350 nM |
| CNS(=O)(=O)c1cccc(-c2ccc(-c3nc4cccc(C(F)(F)F)c4nc3C)cc2)c1 | 1470 | 6 | – | – |
| CCS(=O)(=O)c1cccc(-c2ccc(-c3nc4cccc(C(F)(F)F)c4nc3C)cc2)c1 | – | – | > 1000 | – |
| Cc1nc2c(C(F)(F)F)cccc2nc1-c1cccc(-c2cccc(S(C)(=O)=O)c2)c1 | – | – | > 1000 | – |
| CNC(=O)c1cccc(-c2ccc(-c3nc4cccc(C(F)(F)F)c4nc3C)cc2)c1 | – | – | > 1000 | – |
| Cc1nc2c(C(F)(F)F)cccc2nc1-c1ccc(-c2ccccc2S(C)(=O)=O)cc1 | – | – | > 1000 | – |
| Cc1nc2c(C(F)(F)F)cccc2nc1-c1cccc(-c2ccc(S(C)(=O)=O)cc2)c1 | – | – | > 1000 | – |
| CS(=O)(=O)c1cccc(-c2ccc(-c3cnc4c(C(F)(F)F)cccc4n3)cc2)c1 | – | – | > 1000 | – |
| Cc1nc2c(Cl)cccc2nc1-c1ccc(-c2cccc(S(C)(=O)=O)c2)cc1 | 290 | 18 | – | EC50 (HepG2 [3]): 380 nM |

From ChEMBL document CHEMBL1156230, “Identification of phenylsulfone-substituted quinoxaline (WYE-672) as a tissue selective liver X-receptor (LXR) agonist” (J Med Chem, 2010)
